Values of other authors in patent publication US20090255536A1, “Biofilm-Inhibiting Catheters and Tubings” (priority 2008, published 2009).

What was measured:
[1] = test system: S. aureus and P. aeruginosa; settings: exogenous gNO at 200 ppm
Staphylococcus aureus = settings: topical exogenous gNO at 200 ppm for extended periods of time
Candida albicans = settings: topical exogenous gNO at 200 ppm for extended periods of time
Escherichia coli = settings: topical exogenous gNO at 200 ppm for extended periods of time
Group B Streptococcus = settings: topical exogenous gNO at 200 ppm for extended periods of time
[2] = test system: cultured human dermal fibroblasts; settings: gNO at 200 ppm for extended periods of time
Pseudomonas aeruginosa = settings: topical exogenous gNO at 200 ppm for extended periods of time

## [N]=O [gNO, nitric oxide]
[1]
  time to clear nosocomial pneumonia caused by microbial pathogens: about 6 hours
Staphylococcus aureus
  growth of Staphylococcus aureus: inhibited and prevented the growth
Candida albicans
  growth of Candida albicans: inhibited and prevented the growth
Escherichia coli
  growth of Escherichia coli: inhibited and prevented the growth
Group B Streptococcus
  growth of Group B Streptococcus: inhibited and prevented the growth
[2]
  cytotoxic effects on cultured human dermal fibroblasts: without any cytotoxic effects
Pseudomonas aeruginosa
  growth of Pseudomonas aeruginosa: inhibited and prevented the growth
